Key:
Experiment in all cases: discontinuous molybdate phosphate release assay
AtAPY1-δTM = biological target: T1, AtAPY1-δTM (Arabidopsis thaliana, UniProt Q9SQG2); format: biochemical
T1 construct: gene APY1; 45 kDa theoretical
T1 sequence (Q9SQG2 67-470): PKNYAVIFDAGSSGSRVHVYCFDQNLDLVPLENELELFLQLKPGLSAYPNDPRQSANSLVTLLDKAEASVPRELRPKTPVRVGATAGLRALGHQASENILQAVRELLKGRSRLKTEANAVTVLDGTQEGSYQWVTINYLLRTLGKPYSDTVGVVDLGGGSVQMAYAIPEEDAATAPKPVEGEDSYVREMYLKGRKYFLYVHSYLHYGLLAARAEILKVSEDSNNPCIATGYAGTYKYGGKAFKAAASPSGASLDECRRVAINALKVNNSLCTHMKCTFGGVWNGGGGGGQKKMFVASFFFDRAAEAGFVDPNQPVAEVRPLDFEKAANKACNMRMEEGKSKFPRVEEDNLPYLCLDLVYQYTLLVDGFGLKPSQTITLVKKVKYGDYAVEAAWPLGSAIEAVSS

AtAPY1 [1] = biological target: T2, AtAPY1 (Arabidopsis thaliana, UniProt Q9SQG2); format: biochemical; set-up: gene APY1; full-length with TM, C-terminal linker and His6 tag, HEK293 cells; Ni-NTA elution fraction, not enriched; 52 kDa theoretical
T2 sequence (Q9SQG2 1-471): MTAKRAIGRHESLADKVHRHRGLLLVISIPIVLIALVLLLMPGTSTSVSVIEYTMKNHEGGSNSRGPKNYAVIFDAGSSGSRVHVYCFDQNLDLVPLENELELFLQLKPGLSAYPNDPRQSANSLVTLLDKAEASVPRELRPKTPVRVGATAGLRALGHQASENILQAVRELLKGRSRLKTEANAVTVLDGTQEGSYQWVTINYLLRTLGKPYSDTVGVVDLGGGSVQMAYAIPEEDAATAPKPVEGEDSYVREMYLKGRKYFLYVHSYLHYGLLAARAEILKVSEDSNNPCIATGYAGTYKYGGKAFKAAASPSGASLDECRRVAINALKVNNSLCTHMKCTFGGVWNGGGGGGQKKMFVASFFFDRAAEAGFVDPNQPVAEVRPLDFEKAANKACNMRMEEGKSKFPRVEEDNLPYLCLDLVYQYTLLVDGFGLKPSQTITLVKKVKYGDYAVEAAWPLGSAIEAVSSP

AtAPY1-GFP = biological target: T3, AtAPY1-GFP (Arabidopsis thaliana, UniProt Q9SQG2); format: biochemical; conditions: 3 mM UDP substrate, 2 mM MgCl2, pH 6.5, 30°C; immobilised enzyme
T3 construct: gene APY1; full-length, C-terminal GFP fusion (GFP from residue 472; 80 kDa), 35S transgenic Arabidopsis seedlings, immobilised on anti-GFP plate
T3 sequence (Q9SQG2 1-471): T2 sequence (Q9SQG2 1-471)

AtAPY1 [2] = biological target: T2, AtAPY1; set-up: gene APY1; conditions: 3 mM UDP substrate, 1 mM MgCl2, pH 6.5, 30°C

Row | SMILES | discontinuous molybdate phosphate release assay (AtAPY1-δTM) | discontinuous molybdate phosphate release assay (AtAPY1 [1]) | % inhibition (AtAPY1-GFP) | % inhibition at 1 mM (AtAPY1 [2]) [%]
1 | Nc1nc2c(ncn2[C@@H]2O[C@H](COP(=O)(O)OP(=O)(O)O)[C@@H](O)[C@H]2O)c(=O)[nH]1 [GDP] | AtAPY1 with or without TM is limited to the nucleotides GDP, IDP and UDP | only GDP, IDP and UDP were hydrolyzed by AtAPY1 |  | 
2 | O=c1ccn([C@@H]2O[C@H](COP(=O)(O)OP(=O)(O)O)[C@@H](O)[C@H]2O)c(=O)[nH]1 [UDP] | AtAPY1 with or without TM is limited to the nucleotides GDP, IDP and UDP | only GDP, IDP and UDP were hydrolyzed by AtAPY1 |  | 
3 | [O]=[V]([OH])([OH])[OH] [vanadate] |  |  | The same inhibition pattern was found for AtAPY1-GFP | 54

— paper PMC4379058, “The Biochemical Properties of the Arabidopsis Ecto-Nucleoside Triphosphate Diphosphohydrolase AtAPY1 Contradict a Direct Role in Purinergic Signaling” (PLoS ONE, 2015)
